The values below come from US9210927B2, “Pesticidal compositions and processes related thereto” (Dow AgroSciences LLC, priority 2013, dated 2015).

Experiment [1] relates to CEW (Helicoverpa zea). As to the kind of experiment: Bioassays on Corn Earworm (CEW), 128-well diet tray assay. The format is in vivo. The following applies: percent mortality, second instar larvae, 50 μg/cm^2 on artificial diet, five to seven days, 25° C.; for pest or weed control at 50 µg/cm2: Helicoverpa zea, 168 h, read-out: CEW Rating. Here is the method:
(§1) Bioassays on Beet Armyworm (“BAW”) and Corn Earworm (“CEW”) and Cabbage Looper (“CL”)
(§2) Certain molecules disclosed in this document were tested against BAW and CEW and CL using procedures described in the following examples. In the reporting of the results, the “BAW & CEW & CL Rating Table” was used (See Table Section).
Bioassays on CEW (Helicoverpa zea)
Bioassays on CEW were conducted using a 128-well diet tray assay. one to five second instar CEW larvae were placed in each well (3 mL) of the diet tray that had been previously filled with 1 mL of artificial diet to which 50 μg/cm^2 of the test compound (dissolved in 50 μL of 90:10 acetone-water mixture) had been applied (to each of eight wells) and then allowed to dry. Trays were covered with a clear self-adhesive cover, and held at 25° C., 14:10 light-dark for five to seven days. Percent mortality was recorded for the larvae in each well; activity in the eight wells was then averaged. The results are indicated in the table entitled “Table 3: Assay Results” (See Table Section).

The test system of experiment [2] is BAW (Spodoptera exigua). As to the kind of experiment: Bioassays on Beet Armyworm (BAW), 128-well diet tray assay. The following applies: for pest or weed control at 50 µg/cm2: Spodoptera exigua, 168 h, read-out: BAW Rating. In kind it is in vivo. Here is the method: as §1, §2
Bioassays on BAW (Spodoptera exigua)
Bioassays on BAW were conducted using a 128-well diet tray assay. one to five second instar BAW larvae were placed in each well (3 mL) of the diet tray that had been previously filled with 1 mL of artificial diet to which 50 μg/cm^2 of the test compound (dissolved in 50 μL of 90:10 acetone-water mixture) had been applied (to each of eight wells) and then allowed to dry. Trays were covered with a clear self-adhesive cover, and held at 25° C., 14:10 light-dark for five to seven days. Percent mortality was recorded for the larvae in each well; activity in the eight wells was then averaged. The results are indicated in the table entitled “Table 3: Assay Results” (See Table Section).

Consider `Cc1cc(/C=C/C(c2cc(Cl)cc(Cl)c2)C(F)(F)F)ccc1C(=O)NCc1ccccc1` (centres unmarked) [AC11], for which the pest or weed control at 50 µg/cm2 in experiment [1] and in experiment [2] was 50 to 100% in each case.

In the case of `Cc1cc(/C=C/C(c2cc(Cl)cc(Cl)c2)C(F)(F)F)ccc1C(=O)NCc1ccccn1` (centres unmarked) [AC12], the pest or weed control at 50 µg/cm2 in experiment [1] and in experiment [2] was 50 to 100% in each case.

As to `Cc1cc(/C=C/C(c2cc(Cl)cc(Cl)c2)C(F)(F)F)ccc1C(=O)NC(C)(C)c1ccccn1` (centres unmarked) [AC16], the pest or weed control at 50 µg/cm2 in experiment [1] and in experiment [2] was 50 to 100% each time.

For `Cc1cc(/C=C/C(c2cc(Cl)cc(Cl)c2)C(F)(F)F)ccc1C(=O)NCc1ccoc1` (centres unmarked) [AC20], the pest or weed control at 50 µg/cm2 in experiment [1] and in experiment [2] was 50 to 100% in each case.

Take `Cc1cc(/C=C/C(c2cc(Cl)c(Cl)c(Cl)c2)C(F)(F)F)ccc1C(=O)NCc1ccc(Cl)nc1` (centres unmarked) [AC22]: the pest or weed control at 50 µg/cm2 in experiment [1] and in experiment [2] was 50 to 100% throughout.

As for `Cc1cc(/C=C/C(c2cc(Cl)cc(Cl)c2)C(F)(F)F)ccc1C(=O)NCC(=O)NCC(F)(F)F` (centres unmarked) [AC24], the “CEW Rating” value in experiment [1] is on record as “A (50-100)”. In addition, the “BAW Rating” value in experiment [2] (percent mortality, second instar larvae, 50 μg/cm^2 on artificial diet, five to seven days, 25° C.) was “A (50-100)”.

For the molecule `O=C(NC1CS(=O)(=O)C1)c1ccc(/C=C/C(c2cc(Cl)c(Cl)c(Cl)c2)C(F)(F)F)cc1C(F)(F)F` (centres unmarked) [AC35], the pest or weed control at 50 µg/cm2 in experiment [1] and in experiment [2] was 50 to 100% in each case.

Regarding `Cc1cc(/C=C/C(c2cc(Cl)c(F)c(Cl)c2)C(F)(F)F)ccc1C(=O)NCc1ccc(Cl)nc1` (centres unmarked) [AC38], the pest or weed control at 50 µg/cm2 in experiment [1] and in experiment [2] was 50 to 100% each time.

Turning to `Cc1cc(/C=C/C(c2cc(Cl)cc(Cl)c2)C(F)(F)F)ccc1C(=O)NCc1cncnc1` (centres unmarked) [AC39, 4-((E)-3-(3,5-Dichlorophenyl)-4,4,4-trifluorobut-1-enyl)-2-methyl-N-((pyrimidin-5-yl)methyl)benzamide], the pest or weed control at 50 µg/cm2 in experiment [1] and in experiment [2] was 50 to 100% in each case.

On to `Cc1cc(/C=C/C(c2cc(Cl)cc(Cl)c2)C(F)(F)F)ccc1C(=O)NCC(=O)NC1CC1` (centres unmarked) [AC40], for which the pest or weed control at 50 µg/cm2 in experiment [1] and in experiment [2] was 50 to 100% in each case.

Consider `Cc1cc(/C=C/C(c2cc(Cl)cc(Cl)c2)C(F)(F)F)ccc1C(=O)NN(C)c1ccccc1F` (centres unmarked) [AC45], for which the pest or weed control at 50 µg/cm2 in experiment [1] and in experiment [2] was 50 to 100% throughout.

Take `O=C(NCc1ccc(Cl)cn1)c1ccc(/C=C/C(c2cc(Cl)cc(Cl)c2)C(F)(F)F)cc1Br` (centres unmarked) [AC46]: the pest or weed control at 50 µg/cm2 in experiment [1] and in experiment [2] was 50 to 100% each time.

For `O=C(CNC(=O)c1ccc(/C=C/C(c2cc(Cl)cc(Cl)c2)C(F)(F)F)cc1F)NCC(F)(F)F` (centres unmarked) [AC62], the pest or weed control at 50 µg/cm2 in experiment [1] and in experiment [2] was 50 to 100% in each case.

On to `O=C(CNC(=O)c1ccc(/C=C/C(c2cc(Cl)c(F)c(Cl)c2)C(F)(F)F)cc1F)NCC(F)(F)F` (centres unmarked) [AC68], for which the pest or weed control at 50 µg/cm2 in experiment [1] and in experiment [2] was 50 to 100% throughout.

With `O=C(NC1CS(=O)(=O)C1)c1ccc(/C=C/C(c2cc(Cl)c(F)c(Cl)c2)C(F)(F)F)cc1F` (centres unmarked) [AC84], the pest or weed control at 50 µg/cm2 in experiment [1] and in experiment [2] was 50 to 100% in each case.

As for `CCc1cc(/C=C/C(c2cc(Cl)c(F)c(Cl)c2)C(F)(F)F)ccc1C(=O)NC1CS(=O)(=O)C1` (centres unmarked) [AC86], the pest or weed control at 50 µg/cm2 in experiment [1] and in experiment [2] was 50 to 100% each time.

For the molecule `FC(F)(F)CNC(=S)CNC(=S)c1ccc(/C=C/C(c2cc(Cl)c(Cl)c(Cl)c2)C(F)(F)F)cc1Br` (centres unmarked) [AC90, (E)-2-Bromo-N-(2-thioxo-2-((2,2,2-trifluoroethyl)amino)ethyl)-4-(4,4,4-trifluoro-3-(3,4,5-trichlorophenyl)but-1-en-1-yl)benzothioamide], the pest or weed control at 50 µg/cm2 in experiment [1] and in experiment [2] was 50 to 100% in each case.

On to `O=C(CNC(=S)c1ccc(/C=C/C(c2cc(Cl)c(Cl)c(Cl)c2)C(F)(F)F)cc1Br)NCC(F)(F)F` (centres unmarked) [AC91, (E)-2-(2-Bromo-4-(4,4,4-trifluoro-3-(3,4,5-trichlorophenyl)but-1-en-1-yl)phenylthioamido)-N-(2,2,2-trifluoroethyl)acetamide], for which the pest or weed control at 50 µg/cm2 in experiment [1] and in experiment [2] was 50 to 100% throughout.

With `O=C(NCC(=S)NCC(F)(F)F)c1ccc(/C=C/C(c2cc(Cl)c(Cl)c(Cl)c2)C(F)(F)F)cc1Br` (centres unmarked) [AC92, (E)-2-Bromo-N-(2-thioxo-2-((2,2,2-trifluoroethyl)amino)ethyl)-4-(4,4,4-trifluoro-3-(3,4,5-trichlorophenyl)but-1-en-1-yl)benzamide], the pest or weed control at 50 µg/cm2 in experiment [1] and in experiment [2] was 50 to 100% each time.

With `O=C(CNC(=O)c1ccc(/C=C\C(c2cc(Cl)c(Cl)c(Cl)c2)C(F)(F)F)cc1Br)NCC(F)(F)F` (centres unmarked) [AC95, (Z)-2-Bromo-N-(2-oxo-2-((2,2,2-trifluoroethyl)amino)ethyl)-4-(4,4,4-trifluoro-3-(3,4,5-trichlorophenyl)but-1-en-1-yl)benzamide], the pest or weed control at 50 µg/cm2 in experiment [1] and in experiment [2] was 50 to 100% in each case.

`O=C(CNC(=O)c1ccc(/C=C/C(c2cc(Cl)c(F)c(Cl)c2)C(F)(F)F)cc1[N+](=O)[O-])NCC(F)(F)F` (centres unmarked) [AC98]: the pest or weed control at 50 µg/cm2 in experiment [1] and in experiment [2] was 50 to 100% each time.

Consider `O=C(CNC(=O)c1ccc(/C=C/C(c2ccc(F)c(Cl)c2)C(F)(F)F)cc1Br)NCC(F)(F)F` (centres unmarked) [AC99], for which the pest or weed control at 50 µg/cm2 in experiment [1] and in experiment [2] was 50 to 100% in each case.

As to `CC(=O)N1CCC(NC(=O)c2ccc(/C=C/C(c3cc(Cl)c(Cl)c(Cl)c3)C(F)(F)F)cc2Br)CC1` (centres unmarked) [AC103, (E)-N-(1-Acetylpiperidin-4-yl)-2-bromo-4-(4,4,4-trifluoro-3-(3,4,5-trichlorophenyl)but-1-en-1-yl)benzamide], the pest or weed control at 50 µg/cm2 in experiment [1] and in experiment [2] was 50 to 100% each time.

Consider `N#CCN1CCC(NC(=O)c2ccc(/C=C/C(c3cc(Cl)c(Cl)c(Cl)c3)C(F)(F)F)cc2Br)CC1` (centres unmarked) [AC107], for which the pest or weed control at 50 µg/cm2 in experiment [1] was in the range of 50 to 100%; in experiment [2], 0 to 50%.

For the molecule `CONC(=O)CNC(=O)c1ccc(/C=C/C(c2cc(Cl)c(Cl)c(Cl)c2)C(F)(F)F)cc1Br` (centres unmarked) [AC110], the pest or weed control at 50 µg/cm2 in experiment [1] and in experiment [2] was 50 to 100% throughout.

As to `C=CCNC(=O)CNC(=O)c1ccc(/C=C/C(c2cc(Cl)c(Cl)c(Cl)c2)C(F)(F)F)cc1Br` (centres unmarked) [AC111], the pest or weed control at 50 µg/cm2 in experiment [1] and in experiment [2] was 50 to 100% throughout.

On to `O=C(NCCc1ccc(Cl)nc1)c1ccc(/C=C/C(c2cc(Cl)c(Cl)c(Cl)c2)C(F)(F)F)cc1Br` (centres unmarked) [AC113], for which the pest or weed control at 50 µg/cm2 in experiment [1] was in the range of 50 to 100%; in experiment [2] it was 0 to 50%.

For `O=C(NC1CCNCC1)c1ccc(/C=C/C(c2cc(Cl)c(Cl)c(Cl)c2)C(F)(F)F)cc1Br` (centres unmarked) [AC114, (E)-2-Bromo-N-(piperidin-4-yl)-4-(4,4,4-trifluoro-3-(3,4,5-trichlorophenyl)but-1-en-1-yl)benzamide], the pest or weed control at 50 µg/cm2 lay in the range of 0 to 50% in experiment [1] and 50 to 100% in experiment [2].
